From patent US7834024B2, “Compositions and methods for inhibition of the JAK pathway” (Rigel Pharmaceuticals, Inc., priority 2007, dated 2010) come the findings set out here.

In one experiment the test system is Ramos B-Cell Line Stimulated with IL-4 (JAK-1 and JAK-3 / Stat-6, CD23). The experiment is described as follows: Assay for Ramos B-Cell Line Stimulated with IL-4 (CD23 upregulation, FACS). The following applies: Homo sapiens, Ramos, human Ramos B cells, compound 1 hour, IL-4 50 units/mL for 20-24 hours, anti-CD23-PE FACS; read-out: Example 2 (IC50). The experiment is classed as cell-based. In outline: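 Human Ramos B cells (5×10^4 per point, RPMI with 5% serum) pre-incubated 1 hour at 37° C with compound or DMSO, then stimulated with IL-4 at 50 units/mL final for 20-24 hours. CD23 upregulation measured by flow cytometry.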
The term IC50 denotes the concentration at which inhibition is half-maximal. Consider `COc1ccc(Nc2nc(Nc3cccc(C#N)c3)ncc2F)cc1Cl` [Compound I-18, N4-(3-Chloro-4-methoxyphenyl)-N2-(3-cyanophenyl)-5-fluoro-2,4-pyrimidinediamine], for which the IC50 worked out at 0.266 µM.

Consider `Cc1noc(COc2ccc(Nc3nc(Nc4cccc(C#N)c4)ncc3F)cc2)n1` [Compound I-111, N2-(3-Cyanophenyl)-5-fluoro-N4-[4-((3-methyl-1,2,4-oxadiazol-5-yl)methoxy)phenyl]-2,4-pyrimidinediamine], for which the half-maximal inhibitory concentration (IC50) was 1.05 µM.

`CC(C#N)Oc1ccc(Nc2nc(Nc3ccc(CC#N)cc3)ncc2F)cc1` (stereo not drawn) [Compound I-78, N4-[4-(1-Cyanoethoxy)phenyl]-N2-(4-cyanomethylphenyl)-5-fluoro-2,4-pyrimidinediamine]: the half-maximal inhibitory concentration (IC50) is 0.117 µM.

With `Cc1cc(Nc2nc(Nc3ccc(C(N)=O)c(Cl)c3)ncc2F)ccc1N1CCN(C)CC1` [Compound I-11, N2-(4-Aminocarbonyl-3-chlorophenyl)-5-fluoro-N4-[3-methyl-4-(4-methylpiperazin-1-yl)phenyl]-2,4-pyrimidinediamine], the IC50 stood at 0.0563 µM.

Turning to `Cc1nc(COc2ccc(Nc3nc(Nc4ccc(N5CCN(C)CC5)c(C(N)=O)c4)ncc3F)cc2)no1` [Compound I-62, N2-[3-Aminocarbonyl-4-(4-methylpiperazin-1-yl)phenyl]-5-fluoro-N4-[4-((5-methyl-1,2,4-oxadiazol-3-yl)methoxy)phenyl]-2,4-pyrimidinediamine], the IC50 turned out to be 0.0805 µM.

In the case of `N#CCOc1ccc(Nc2nc(Nc3ccc(CC#N)cc3)ncc2F)cc1` [Compound I-64, N4-(4-Cyanomethoxyphenyl)-N2-(4-cyanomethylphenyl)-5-fluoro-2,4-pyrimidinediamine], the IC50 is 0.0797 µM.

Take `CCc1cc(Nc2ncc(F)c(Nc3ccc4c(c3)NC(=O)CS4)n2)cc(C#N)c1Cl` [II-23, N2-(4-Chloro-3-cyano-5-ethylphenyl)-5-fluoro-N4-(3-oxo-2H,4H-benzo[1,4]thiazin-6-yl)-2,4-pyrimidinediamine]: the IC50 came out at 0.174 µM.

Take `C#CCOc1ccc(Nc2nc(Nc3ccc(C(N)=O)cc3)ncc2F)cc1` [Compound I-8, N2-(4-Aminocarbonylphenyl)-5-fluoro-N4-[4-(2-propynyloxy)phenyl]-2,4-pyrimidinediamine]: the IC50 stood at 0.118 µM.

Regarding `N#CCOc1ccc(Nc2ncc(F)c(Nc3ccc(OCC#N)c(Cl)c3)n2)cc1Cl` [Compound I-107, N2,N4-Bis(3-chloro-4-cyanomethoxyphenyl)-5-fluoro-2,4-pyrimidinediamine], the half-maximal inhibitory concentration (IC50) came out at 0.35 µM.

On to `CC(C)(C#N)Oc1ccc(Nc2nc(Nc3cccc(C(N)=O)c3)ncc2F)cc1` [Compound I-85, N2-(3-Aminocarbonylphenyl)-N4-[4-(1-cyano-1-methylethoxy)phenyl]-5-fluoro-2,4-pyrimidinediamine], for which the IC50 amounted to 0.76 µM.

Regarding `CN1CCOc2cc(Nc3nc(Nc4ccc(C(N)=O)cc4)ncc3F)ccc21` [II-3, N2-(4-Aminocarbonylphenyl)-N4-(3,4-dihydro-4-methyl-2H-benzo[1,4]oxazin-7-yl)-5-fluoro-2,4-pyrimidinediamine], the IC50 was 0.0629 µM.

Consider `Cc1nc(COc2ccc(Nc3nc(Nc4ccc(CC#N)cc4)ncc3F)cc2)no1` [Compound I-77, N2-(4-Cyanomethylphenyl)-5-fluoro-N4-[4-((5-methyl-1,2,4-oxadiazol-3-yl)methoxy)phenyl]-2,4-pyrimidinediamine], for which the IC50 was found to be 0.247 µM.

For the molecule `COc1ccc(Nc2nc(Nc3ccc(C(=O)Nc4ccn(C)n4)cc3)ncc2F)cc1Cl` [Compound I-2, N4-(3-Chloro-4-methoxyphenyl)-5-fluoro-N2-[4-((1-methyl-1H-pyrazol-3-yl)aminocarbonyl)phenyl]-2,4-pyrimidinediamine], the 50% inhibitory concentration (IC50) was 0.317 µM.

In the case of `COc1ccc(Nc2nc(Nc3ccc(C(=O)Nc4ccnn4C)cc3)ncc2F)cc1Cl` [Compound I-4, N4-(3-Chloro-4-methoxyphenyl)-5-fluoro-N2-[4-((1-methyl-1H-pyrazol-5-yl)aminocarbonyl)phenyl]-2,4-pyrimidinediamine], the concentration for half-maximal inhibition (IC50) amounted to 0.0575 µM.

On to `Cc1cnc(Nc2cccc(C#N)c2)nc1Nc1ccc2c(c1)NC(=O)CS2` [II-9, N2-(3-Cyanophenyl)-5-methyl-N4-(3-oxo-2H,4H-benzo[1,4]thiazin-6-yl)-2,4-pyrimidinediamine], for which the 50% inhibitory concentration (IC50) was 0.0734 µM.

As to `C#CCOc1ccc(Nc2nc(Nc3cccc(C(N)=S)c3)ncc2F)cc1` [Compound I-5, N2-(3-Aminocarbonothioylphenyl)-5-fluoro-N4-[4-(2-propynyloxy)phenyl]-2,4-pyrimidinediamine], the 50% inhibitory concentration (IC50) came out at 1.15 µM.

With `N#CCOc1ccc(Nc2nc(Nc3cccc(C(N)=O)c3)ncc2F)cc1` [Compound I-28, N2-(3-Aminocarbonylphenyl)-N4-(4-cyanomethoxyphenyl)-5-fluoro-2,4-pyrimidinediamine], the IC50 was determined as 0.0651 µM.

With `N#CCc1ccc(Nc2nc(Nc3cccc(C#N)c3)ncc2F)cc1` [Compound I-70, N4-(4-Cyanomethylphenyl)-N2-(3-cyanophenyl)-5-fluoro-2,4-pyrimidinediamine], the IC50 stood at 1.15 µM.

For the molecule `CNC(=O)c1cc(Nc2ncc(F)c(Nc3cccc(OCC(N)=O)c3)n2)ccc1N1CCN(C)CC1` [Compound I-51, N4-(3-Aminocarbonylmethoxyphenyl)-5-fluoro-N2-[3-methylaminocarbonyl-4-(4-methylpiperazin-1-yl)phenyl]-2,4-pyrimidinediamine], the IC50 came to 0.357 µM.

The experiment is the same for the next values; noted with them: human Ramos B cells, compound 1 hour, IL-4 50 units/mL for 20-24 hours, anti-CD23-PE FACS; read-out: Example 2 (IC50).
In the case of `CCN(CC)CCNC(=O)c1ccc(Nc2ncc(F)c(Nc3ccc(OCc4cc(C)on4)cc3)n2)cc1` [Compound I-127, N2-[4-(2-(N,N-Diethylamino)ethylaminocarbonyl)phenyl]-5-fluoro-N4-[4-((5-methylisoxazol-3-yl)methyleneoxy)phenyl]-2,4-pyrimidinediamine], the concentration for half-maximal inhibition (IC50) was 0.00933 µM.

On to `Cc1cnc(Nc2cccc(C(N)=O)c2)nc1Nc1ccc2c(n1)NC(=O)C(C)(C)O2` [II-40, N2-(3-Aminocarbonylphenyl)-N4-(2,2-dimethyl-3-oxo-4H-5-pyrido[1,4]oxazin-6-yl)-5-methyl-2,4-pyrimidinediamine], for which the IC50 stood at 0.163 µM.

Consider `Cc1noc(COc2ccc(N(C)c3nc(Nc4ccc(C(N)=O)cc4)ncc3F)cc2)n1` [Compound I-15, N2-(4-Aminocarbonylphenyl)-5-fluoro-N4-methyl-N4-[4-((3-methyl-1,2,4-oxadiazol-5-yl)methyleneoxy)phenyl]-2,4-pyrimidinediamine], for which the half-inhibitory concentration (IC50) worked out at 0.693 µM.

Take `CN1CCN(C(=O)c2ccc(Nc3ncc(F)c(Nc4ccc(CC#N)cc4)n3)cc2)CC1` [Compound I-73, N4-(4-Cyanomethylphenyl)-5-fluoro-N2-[4-((4-methylpiperazin-1-yl)carbonyl)phenyl]-2,4-pyrimidinediamine]: the IC50 was found to be 1.73 µM.

`CN1CCN(C(=O)c2cccc(Nc3ncc(F)c(Nc4ccc(OCC#N)cc4)n3)c2)CC1` [Compound I-40]: the half-inhibitory concentration (IC50) amounted to 0.567 µM.

In the case of `Cc1nc(COc2ccc(Nc3nc(Nc4ccc(C(=O)N5CCN(C)CC5)cc4)ncc3F)cc2)no1` [Compound I-60, 5-Fluoro-N4-[4-((5-methyl-1,2,4-oxadiazol-3-yl)methoxy)phenyl]-N2-[4-((4-methylpiperazin-1-yl)carbonyl)phenyl]-2,4-pyrimidinediamine], the IC50 turned out to be 0.421 µM.

As to `CCn1nccc1NC(=O)c1ccc(Nc2ncc(F)c(Nc3ccc(OC)c(Cl)c3)n2)cc1` [Compound I-3, N4-(3-Chloro-4-methoxyphenyl)-N2-[4-((I-ethyl-1H-pyrazol-5-yl)aminocarbonyl)phenyl]-5-fluoro-2,4-pyrimidinediamine], the IC50 is 0.119 µM.

As to `Cc1nc(COc2ccc(Nc3nc(Nc4ccc(C(=O)N5CCN(C)CC5)cc4)ncc3F)cc2)no1` [Compound I-61, 5-Fluoro-N4-[4-((5-methyl-1,2,4-oxadiazol-3-yl)methoxy)phenyl]-N2-[4-((4-methylpiperazin-1-yl)carbonyl)phenyl]-2,4-pyrimidinediamine], the half-maximal inhibitory concentration (IC50) amounted to 0.898 µM.

On to `Cc1noc(COc2cccc(Nc3nc(Nc4ccc(CC#N)cc4)ncc3F)c2)n1` [Compound I-129, N2-(4-Cyanomethylphenyl)-5-fluoro-N4-[3-((3-methyl-1,2,4-oxadiazol-5-yl)methyleneoxy)phenyl]-2,4-pyrimidinediamine], for which the concentration for half-maximal inhibition (IC50) was 1.29 µM.

As to `CNC(=O)COc1cccc(Nc2ncc(C)c(Nc3cnc4c(c3)OC(F)(F)C(=O)N4)n2)c1` [II-36, N4-(2,2-Difluoro-3-oxo-4H-5-pyrido[1,4]oxazin-7-yl)-5-methyl-N2-[3-(N-methylaminocarbonylmethyleneoxy)phenyl]-2,4-pyrimidinediamine], the 50% inhibitory concentration (IC50) was determined as 3.78 µM.

With `CN1CCN(C(=O)c2ccc(Nc3ncc(F)c(Nc4cccc(OCC(N)=O)c4)n3)cc2)CC1` [Compound I-49, N4-(3-Aminocarbonylmethoxyphenyl)-5-fluoro-N2-[4-((4-methylpiperazin-1-yl)carbonyl)phenyl]-2,4-pyrimidinediamine], the IC50 was 2.29 µM.

As for `CCN(CC)CCNC(=O)c1ccc(Nc2ncc(F)c(Nc3ccc(OCc4ccccn4)cc3)n2)cc1` [Compound I-135, N2-[4-(2-(N,N-Diethylamino)ethylaminocarbonyl)phenyl)-5-fluoro-N4-[4-(2-pyridinylmethyleneoxy)phenyl]-2,4-pyrimidinediamine], the IC50 turned out to be 0.056 µM.

For the molecule `Cc1noc(COc2ccc(N(C)c3nc(Nc4ccc(C(N)=O)c(Cl)c4)ncc3F)cc2)n1` [Compound I-16, N2-(4-Aminocarbonyl-3-chlorophenyl)-5-fluoro-N4-methyl-N4-[4-((3-methyl-1,2,4-oxadiazol-5-yl)methyleneoxy)phenyl]-2,4-pyrimidinediamine], the IC50 is 0.909 µM.

“N4-(4-(1-Cyanoethoxy)-3,5-dimethyl phenyl]-5-fluoro-N2-[4-((4-methylpiperazin-1-yl)carbonyl)phenyl]-2,4-pyrimidinediamine [Compound I-98]”: the IC50 turned out to be 0.276 µM.
